# Data reported in US10266527B2, “T-box riboswitch-binding anti-bacterial compounds” (THE RESEARCH FOUNDATION FOR THE STATE UNIVERSITY OF NEW YORK, priority 2013, dated 2019).
# Entries after “also recorded” stand apart in the source; their conditions may differ. Read-outs that look alike come from different tables or passages of the source.
# What was measured:
# Assay type in all cases: cell-based
# S. aureus = experiment: Disc diffusion assay (DDA) of PKZ6 and PKZ18 analogs with S. aureus; conditions: Table 4, 150 μg/ml, ✓ = zone of inhibition observed
# Excerpt: (§1) The identity and purity of both PKZ 6 and 18 was confirmed by mass spectroscopy. Forty commercially available compounds chosen on the basis of initial in silico selections and similarity to our two hits were screened by disc diffusion assay (DDA) to determine their relative antibacterial activity with S. aureus. […] These 14 compounds were further evaluated by minimum inhibitory concentration assays (MIC)^41,42, and minimum bactericidal assays (MBC)^41 to confirm antibacterial activity, determine the concentration at which S. aureus growth is inhibited in liquid culture (MIC) and if they are acting as bacteriostatic or bactericidal agents (MBC). […] Representative embodiments are shown below.
# All compounds were tested at a concentration of 150 μg/ml.
# S. aureus ATCC 29213 [1] = experiment: Broth microdilution MIC; conditions: for MIC: Staphylococcus aureus, ATCC29213
# Excerpt: as §1
# (§2) Broth microdilution assays^77, 78 were performed with B. subtilis, and S. aureus to determine the lowest compound concentration inhibiting visible growth, i.e., minimum inhibitory concentration (MIC) of the 4 original compounds. […] The insolubility of the fourth compound may account for its lack of antibacterial activity. […] The MICs of each compound are moderate.
# (§3) Strains were grown on trypticase soy agar (TSA) with 5% sheep blood at 37° C. for 24 hours. Five isolated colonies were used to inoculate 5 mL cation-adjusted Mueller-Hinton broth (CAMHB) contained in a 50 mL centrifuge tube. The resulting culture was incubated shaking at 200 rpm for 3 hours at 37° C. and then diluted in CAMHB until its turbidity matched that of a 0.5 McFarland standard (OD625 0.08-0.10). After the culture had been standardized against a 0.5 McFarland standard, it was diluted 1:10 in CAMHB and then 5 μL of this dilution was added to the appropriate wells of a 96-well, flat-bottomed tissue culture plate in which each row contained a twofold dilution series of a particular compound ranging in concentration from 0.25 μg/mL to 512 μg/mL. Each plate also included a sterility control well containing CAMHB to which standardized inoculum was not added and a growth control well containing CAMHB to which 5 μL standardized inoculum was added. […] With the exception of the sterility control well, all wells were inoculated within 15 minutes of inoculum preparation to ensure that the starting concentration of bacteria in each well was approximately 5×10^5 CFU/m L. A Tecan Sunrise microplate absorbance reader was used to measure the OD620 of each well before and after 20 h incubation at 37° C. MIC values were recorded as the lowest compound concentration at which no visible growth was observed after this incubation period.
# S. aureus ATCC 29213 [2] = experiment: MBC determination; conditions: for S. aureus (MBC): Table 5 analogs, triplicate experiments, N/O = not observed at concentrations tested (512-0.25 μg/mL); for MBC: S. aureus ATCC 29213, N/O = not observed
# Excerpt: as §1
# (§4) Following 24 h incubation of these subcultures at 37° C., MBC values were recorded as the lowest compound concentration at which no viable colonies were observed.
# E. coli ATCC 25922 [3] = experiment: MBC determination
# Method: as §4
# E. coli ATCC 25922 [4] = experiment: Broth microdilution MIC (Gram negative specificity control); conditions: for antibacterial activity against E. coli (in words): E. coli negative control without T-box riboswitch
# B. subtilis = experiment: Disc diffusion assay, growth inhibition of B. subtilis; conditions: Table 1, ✓ = zone of inhibition observed
# Excerpt: The same 20 top binders and 8 additional predicted to interact with the cleft of the tyrRS mRNA Specifier Loop were selected from subsequent docking and preliminary fluorescence data.
# B. subtilis BGSC 1A1 [5] = experiment: Broth microdilution MIC; conditions: for MIC: Bacillus subtilis, BGSC1A1, B. subtilis BGSC 1A1, 20 h at 37° C., read-out: MIC
# Method: as §2, §3
# B. cereus ATCC 7064 [6] = experiment: Broth microdilution MIC; conditions: for MIC: Bacillus cereus, ATCC7064, B. cereus ATCC 7064, read-out: MIC; for growth inhibition of B. cereus (in words): at moderate concentrations
# S. pneumoniae ATCC 49619 = experiment: Broth microdilution MIC; conditions: for MIC: Streptococcus pneumoniae, ATCC49619, S. pneumoniae ATCC 49619, read-out: MIC; for growth inhibition of S. pneumoniae (in words): at moderate concentrations
# E. faecalis ATCC 29212 [7] = experiment: Broth microdilution MIC
# B. cereus ATCC 7064 [8] = experiment: MBC determination; conditions: Bacillus cereus, ATCC7064, N/O = not observed, read-out: MBC
# Method: as §4
# B. subtilis BGSC 1A1 [9] = experiment: MBC determination
# Method: as §4
# E. faecalis ATCC 29212 [10] = experiment: MBC determination; conditions: N/O = not observed
# Method: as §4
# P. aeruginosa ATCC 27853 = experiment: Broth microdilution MIC; conditions: N/O = not observed
# [11] = system: Human Embryonic Kidney (HEK293) cells; experiment: Toxicity on a monolayer of HEK293 cells
# [12] = Table 5 analogs, triplicate experiments, N/O = not observed at concentrations tested (512-0.25 μg/mL), read-out: S. aureus MIC
# [13] = S. aureus ATCC 29213, N/O = not observed, read-out: MIC
smiles,measurement,setting,value
CC(C)CCNC(=O)c1c(O)n2c3c(cccc3c1=O)CCC2 [Compound 0603],ZOI observed,S. aureus,✓
same,MIC,S. aureus ATCC 29213 [1]; [12],512 µg/mL
same,S. aureus (MBC),S. aureus ATCC 29213 [2],N/O
same,E. coli (MBC),"E. coli ATCC 25922 [3]; Table 5 analogs, triplicate experiments, N/O = not observed at concentrations tested (512-0.25 μg/mL)",N/O
same,MIC,"E. coli ATCC 25922 [4]; Escherichia coli, ATCC25922, Table 5 analogs, triplicate experiments, N/O = not observed at concentrations tested (512-0.25 μg/mL), read-out: E. coli MIC",512 µg/mL
CCCn1c(=O)c(C(=O)NCCN2CCNCC2)c(O)c2ccccc21 [Compound 0610],ZOI observed,S. aureus,✓
O=C(NCCN1CCNCC1)c1c(O)c2cccc3c2n(c1=O)CCC3 [Compound 6],ZOI observed,B. subtilis,✓
same,antibacterial activity against B. subtilis (in words),B. subtilis BGSC 1A1 [5],active
same,MIC,B. subtilis BGSC 1A1 [5],32 µg/mL
same,antibacterial activity against B. subtilis (in words),B. subtilis BGSC 1A1 [5]; listed as PKZ 6,inhibited growth
same,MIC,B. cereus ATCC 7064 [6],128 µg/mL
same,growth inhibition of B. cereus (in words),B. cereus ATCC 7064 [6],inhibited growth
same,antibacterial activity against S. aureus (in words),S. aureus ATCC 29213 [1],displayed antibacterial properties
same,MIC,S. aureus ATCC 29213 [1]; [13],256 µg/mL
same,antibacterial activity against S. aureus (in words),S. aureus ATCC 29213 [1]; listed as PKZ 6,inhibited growth
same,MBC,S. aureus ATCC 29213 [2],N/O
same,MIC,S. pneumoniae ATCC 49619,64 µg/mL
same,growth inhibition of S. pneumoniae (in words),S. pneumoniae ATCC 49619,inhibited growth
same,MIC,"E. faecalis ATCC 29212 [7]; Enterococcus faecalis, ATCC29212, N/O = not observed, read-out: MIC",128 µg/mL
same,MBC,B. cereus ATCC 7064 [8],256 µg/mL
same,MBC,B. subtilis BGSC 1A1 [9]; IND = indeterminate,IND
same,MBC,"E. coli ATCC 25922 [3]; Escherichia coli, ATCC25922, E. coli ATCC 25922, read-out: MBC",256 µg/mL
same,MBC,E. faecalis ATCC 29212 [10],N/O
same,antibacterial activity against E. coli (in words),E. coli ATCC 25922 [4],moderate antibacterial activity
same,MIC,"E. coli ATCC 25922 [4]; Escherichia coli, ATCC25922, E. coli ATCC 25922, N/O = not observed, read-out: MIC",256 µg/mL
same,MIC,P. aeruginosa ATCC 27853,N/O (N/D)
same,16 hr post exposure % Live,[11]; 32 ug/ml,100%
same,16 hr post exposure Morphology,[11]; 32 ug/ml,Normal
same,24 hr post exposure % Confluent,[11]; 32 ug/ml,50%
same,24 hr post exposure % Live,[11]; 32 ug/ml,70%
same,16 hr post exposure % Live,[11]; 64 ug/ml,60%
same,16 hr post exposure Morphology,[11]; 64 ug/ml,Mix of Normal and Detached
same,24 hr post exposure % Confluent,[11]; 64 ug/ml,15%
same,24 hr post exposure % Live,[11]; 64 ug/ml,25%
same,24 hr post exposure Morphology,[11]; 64 ug/ml,Mix of Normal and Detached
same,16 hr post exposure % Live,[11]; 128 ug/ml,0%
same,16 hr post exposure Morphology,[11]; 128 ug/ml,Rounded and Detached
same,24 hr post exposure % Confluent,[11]; 128 ug/ml,0%
same,24 hr post exposure % Live,[11]; 128 ug/ml,0%
same,24 hr post exposure Morphology,[11]; 128 ug/ml,Rounded and Detached
CCCCc1ccc(-c2nc(NC(=O)C3CC=CCC3C(=O)O)sc2C)cc1 (centres unmarked) [Compound 1805],ZOI observed,S. aureus,✓
O=C(NCCNCCO)c1c(O)c2cccc3c2n(c1=O)CCC3 [Compound 0609],ZOI observed,S. aureus,✓
NCCNC(=O)c1c(O)c2cccc3c2n(c1=O)CCC3 [Compound 0615],ZOI observed,S. aureus,✓
C[C@@H]1CC[C@@H](C)[C@H](C(=O)Nc2nc(-c3ccc(Cl)cc3Cl)cs2)C1C(=O)O (some centres unmarked) [Compound 1820],ZOI observed,S. aureus,✓
same,MIC,S. aureus ATCC 29213 [1]; [12],64 µg/mL
same,S. aureus (MBC),S. aureus ATCC 29213 [2],N/O
Cc1sc(NC(=O)C2C3CCC(C3)C2C(=O)O)nc1-c1ccc(C(C)C)cc1 (centres unmarked) [Compound 18],ZOI observed,B. subtilis,✓
same,antibacterial activity against B. subtilis (in words),B. subtilis BGSC 1A1 [5],inhibited growth; also recorded: active
same,MIC,B. subtilis BGSC 1A1 [5],64 µg/mL
same,MIC,B. cereus ATCC 7064 [6],64 µg/mL
same,growth inhibition of B. cereus (in words),B. cereus ATCC 7064 [6],inhibited growth
same,antibacterial activity against S. aureus (in words),S. aureus ATCC 29213 [1],inhibited growth; also recorded: displayed antibacterial properties
same,MIC,S. aureus ATCC 29213 [1]; [13],64 µg/mL
same,MBC,S. aureus ATCC 29213 [2],N/O
same,MIC,S. pneumoniae ATCC 49619,64 µg/mL
same,growth inhibition of S. pneumoniae (in words),S. pneumoniae ATCC 49619,inhibited growth
same,MIC,E. faecalis ATCC 29212 [7]; N/O = not observed,N/O (N/D)
same,MBC,B. cereus ATCC 7064 [8],64 µg/mL
same,MBC,"B. subtilis BGSC 1A1 [9]; Bacillus subtilis, BGSC1A1, IND = indeterminate, read-out: MBC",64 µg/mL
same,MIC,"E. coli ATCC 25922 [4]; E. coli ATCC 25922, N/O = not observed",N/O (N/D)
same,antibacterial activity against E. coli (in words),E. coli ATCC 25922 [4],did not inhibit growth
same,MIC,P. aeruginosa ATCC 27853,N/O (N/D)
same,16 hr post exposure % Live,[11]; 32 ug/ml,100%
same,16 hr post exposure Morphology,[11]; 32 ug/ml,Normal
same,24 hr post exposure % Confluent,[11]; 32 ug/ml,90%
same,24 hr post exposure % Live,[11]; 32 ug/ml,100%
same,24 hr post exposure Morphology,[11]; 32 ug/ml,Normal
same,16 hr post exposure % Live,[11]; 64 ug/ml,100%
same,16 hr post exposure Morphology,[11]; 64 ug/ml,Normal
same,24 hr post exposure % Confluent,[11]; 64 ug/ml,90%
same,24 hr post exposure % Live,[11]; 64 ug/ml,90%
same,24 hr post exposure Morphology,[11]; 64 ug/ml,Mix of Normal and Detached
same,16 hr post exposure % Live,[11]; 128 ug/ml,100%
same,16 hr post exposure Morphology,[11]; 128 ug/ml,Normal
same,24 hr post exposure % Confluent,[11]; 128 ug/ml,15%
same,24 hr post exposure % Live,[11]; 128 ug/ml,15%
same,24 hr post exposure Morphology,[11]; 128 ug/ml,Rounded and Detached
